In publication PMC12615753, “Glutathione as a taste modulator: molecular mechanisms of interaction with umami and sweet taste receptors” (Food Chemistry: Molecular Sciences, 2025):

Molecular target: T1, hTAS1R1 Y220A/rTAS1R3 (UniProt Q7RTX1+Q923K1, Y220A)
T1 construct: UniProtKB number Q7RTX1–1); The cDNA coding region of rTAS1R3 was synthesized with optimized-codon usage for human expression; expressed in transfected cells; host or cells: HEK293T/17
T1 sequence (Q7RTX1 21-841 Y220A): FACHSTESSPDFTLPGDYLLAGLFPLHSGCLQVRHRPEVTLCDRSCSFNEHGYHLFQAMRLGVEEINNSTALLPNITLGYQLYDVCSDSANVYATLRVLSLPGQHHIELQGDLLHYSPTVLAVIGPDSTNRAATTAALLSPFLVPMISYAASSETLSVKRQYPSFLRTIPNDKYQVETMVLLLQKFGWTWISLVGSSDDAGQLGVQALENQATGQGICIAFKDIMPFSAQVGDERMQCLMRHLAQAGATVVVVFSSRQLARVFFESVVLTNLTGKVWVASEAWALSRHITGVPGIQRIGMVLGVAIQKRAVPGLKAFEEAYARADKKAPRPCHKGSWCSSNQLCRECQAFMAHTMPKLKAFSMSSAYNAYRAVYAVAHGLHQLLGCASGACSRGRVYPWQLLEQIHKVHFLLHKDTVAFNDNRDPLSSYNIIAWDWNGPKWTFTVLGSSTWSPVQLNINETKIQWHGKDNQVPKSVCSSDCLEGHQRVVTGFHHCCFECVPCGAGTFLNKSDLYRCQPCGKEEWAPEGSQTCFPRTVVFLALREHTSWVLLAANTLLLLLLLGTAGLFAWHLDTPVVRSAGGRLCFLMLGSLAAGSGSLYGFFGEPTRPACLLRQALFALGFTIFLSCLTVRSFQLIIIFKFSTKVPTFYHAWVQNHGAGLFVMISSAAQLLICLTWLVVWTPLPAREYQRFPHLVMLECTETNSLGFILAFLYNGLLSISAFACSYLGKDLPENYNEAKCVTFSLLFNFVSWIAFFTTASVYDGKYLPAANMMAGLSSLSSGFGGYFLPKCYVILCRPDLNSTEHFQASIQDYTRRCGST
T1 sequence (Q923K1 21-858): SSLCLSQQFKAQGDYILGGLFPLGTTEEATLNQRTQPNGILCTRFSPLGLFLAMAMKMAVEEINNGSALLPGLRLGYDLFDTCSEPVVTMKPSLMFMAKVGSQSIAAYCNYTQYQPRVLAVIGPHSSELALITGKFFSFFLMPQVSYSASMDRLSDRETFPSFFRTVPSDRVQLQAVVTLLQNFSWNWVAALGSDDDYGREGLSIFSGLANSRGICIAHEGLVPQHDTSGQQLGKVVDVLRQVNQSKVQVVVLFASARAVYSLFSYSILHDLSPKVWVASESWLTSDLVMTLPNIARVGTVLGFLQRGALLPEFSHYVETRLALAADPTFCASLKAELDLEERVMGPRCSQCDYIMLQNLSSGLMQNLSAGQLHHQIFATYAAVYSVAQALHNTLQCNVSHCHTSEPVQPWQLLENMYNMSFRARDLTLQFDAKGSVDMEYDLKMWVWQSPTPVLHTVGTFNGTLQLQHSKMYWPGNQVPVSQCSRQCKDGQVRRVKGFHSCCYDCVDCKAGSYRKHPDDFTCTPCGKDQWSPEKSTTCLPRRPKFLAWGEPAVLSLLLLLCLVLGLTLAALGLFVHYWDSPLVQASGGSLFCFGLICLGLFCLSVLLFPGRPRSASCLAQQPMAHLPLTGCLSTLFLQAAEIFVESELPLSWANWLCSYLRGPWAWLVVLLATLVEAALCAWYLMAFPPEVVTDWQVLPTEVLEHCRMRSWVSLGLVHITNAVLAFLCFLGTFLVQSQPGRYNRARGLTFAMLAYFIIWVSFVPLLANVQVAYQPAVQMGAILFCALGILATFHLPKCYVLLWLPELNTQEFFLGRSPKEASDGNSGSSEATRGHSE
Assay: Calcium assay, hTAS1R1 mutant co-expressed with rTAS1R3
Type: cell-based, human, rat
Details: for response to the agonist alone, vs WT: Y220A
Excerpt: Chimeric Gα proteins, such as Gα16Gust44, Gα16Gi3 or Gα15i2, are widely used in the functional expression of TAS1R receptors ([Backes et al., 2015]; [Suess et al., 2015]; [Toda et al., 2021], [Toda et al., 2013], [Toda et al., 2018]; [Zhang et al., 2008]). Chimeric Gα15i2 (([Toda et al., 2013]), Supplementary data) was generated by replacing the last five residues of the C-terminal tail of rat Gα15i2 (EINLL) (UniProt number G3V6N8; https://www.uniprot.org/uniprot/) with the counterpart sequence from human GNAI2 (DCGLF) (UniProt number P04899-1) and cloning into the pcDNA3.1/Hygro vector (Invitrogen, Thermo Fisher Scientific, Illkirch, France) between the HindIII and NotI restriction sites, resulting in the plasmid pcDNA3.1-Gα15i2. Chimeric Gα16Gust44 construct have already been reported ([Raliou et al., 2011]). Briefly, Gα16Gust44 was generated by replacing the C-terminal of Gα16 with the C-terminal 44 residues of gustducin. As previously described, hTAS1R1 was amplified from human fungiform papillae cDNA and cloned and inserted into pcDNA3 (Invitrogen), generating pcDNA3-TAS1R1-WT (wild-type) ([Raliou et al., 2011]). […] The cDNA coding region of rTAS1R3 was synthesized with optimized-codon usage for human expression (Genewiz) and was cloned and inserted into the mammalian pcDNA4/myc-HisA (Invitrogen) expression vector between the EcoRI and NotI restriction sites, resulting in the plasmid pcDNA4-rTAS1R3. […] The sequence integrity of all the plasmid constructs was verified via automated DNA sequencing (Genewiz).
The hTAS1R1 mutants were co-expressed with the rTAS1R3 subunit in HEK293 cells. […] As a control, the functionality of the mutated receptors was checked after stimulation with S807 (Fig. S8), which interacts with TAS1R1-TMD ([Zhang et al., 2008]).

SMILES | EC50 [mM] | response to the agonist alone, vs WT
N[C@@H](CCC(=O)N[C@@H](CS)C(=O)NCC(=O)O)C(=O)O [GSH, γ-L-glutamyl-L-cysteinyl-glycine] | > 30 | fully abolished
N[C@@H](CCC(=O)O)C(=O)O [L-Glu, L-glutamic acid, reference compound] | – | completely suppressed
CCCC(CCC)NC(=O)c1ccc2c(c1)OCO2 [S807, N-(heptan-4-yl)benzo[d][1,3]dioxole-5-carboxamide, reference compound] | – | strongly affected
